Laboratory results as given in PubChem BioAssay (NCI).
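Five concentrations, 48 hours, 96-well plates. TGI: total growth inhibition.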

Assays:
Experiment in all cases: DTP human tumour cell line panel, 48 h
[1] = system: 786-0 renal
[2] = system: A498 renal
[3] = system: A549 NSCLC
[4] = system: ACHN renal
[5] = system: CCRF-CEM leukemia
[6] = system: COLO 205 colon
[7] = system: DMS 114 small cell lung
[8] = system: EKVX NSCLC
[9] = system: HCC-2998 colon
[10] = system: HCT-116 colon
[11] = system: HCT-15 colon
[12] = system: HL-60(TB) leukemia
[13] = system: HOP-92 NSCLC
[14] = system: HT29 colon
[15] = system: IGROV1 ovarian
[16] = system: K-562 leukemia
[17] = system: KM12 colon
[18] = system: KM20L2 colon
[19] = system: LOX IMVI melanoma
[20] = system: LXFL 529 NSCLC
[21] = system: M14 melanoma
[22] = system: M19-MEL melanoma
[23] = system: MALME-3M melanoma
[24] = system: MOLT-4 leukemia
[25] = system: NCI-H23 lung
[26] = system: NCI-H460 lung
[27] = system: NCI-H522 lung
[28] = system: OVCAR-3 ovarian
[29] = system: OVCAR-5 ovarian
[30] = system: OVCAR-8 ovarian
[31] = system: RPMI-8226 leukemia
[32] = system: RXF-631 renal
[33] = system: SF-268 CNS
[34] = system: SF-295 CNS
[35] = system: SF-539 CNS
[36] = system: SK-MEL-2 melanoma
[37] = system: SK-MEL-28 melanoma
[38] = system: SK-MEL-5 melanoma
[39] = system: SK-OV-3 ovarian
[40] = system: SN12C renal
[41] = system: SNB-19 CNS
[42] = system: SNB-75 CNS
[43] = system: SNB-78 CNS
[44] = system: SR leukemia
[45] = system: SW-620 colon
[46] = system: TK-10 renal
[47] = system: U251 CNS
[48] = system: UACC-257 melanoma
[49] = system: UACC-62 melanoma
[50] = system: UO-31 renal
[51] = system: XF 498 CNS
[52] = system: CAKI-1 renal
[53] = system: DLD-1 colon
[54] = system: DMS 273 small cell lung
[55] = system: HOP-18 NSCLC
[56] = system: HOP-62 NSCLC
[57] = system: OVCAR-4 ovarian
[58] = system: RXF 393 renal
[59] = system: NCI-H226 lung

Structure (SMILES): C[Si](C)(C)/C=C\CCCN1C(=O)CCC1=O
- TGI [1]: > 100 µM
- TGI [2]: > 100 µM
- TGI [3]: > 100 µM
- TGI [4]: > 100 µM
- TGI [5]: > 100 µM
- TGI [6]: > 100 µM
- TGI [7]: > 100 µM
- TGI [8]: > 100 µM
- TGI [9]: > 100 µM
- TGI [10]: > 100 µM
- TGI [11]: > 100 µM
- TGI [12]: > 100 µM
- TGI [13]: > 100 µM
- TGI [14]: > 100 µM
- TGI [15]: > 100 µM
- TGI [16]: > 100 µM
- TGI [17]: > 100 µM
- TGI [18]: > 100 µM
- TGI [19]: > 100 µM
- TGI [20]: > 100 µM
- TGI [21]: > 100 µM
- TGI [22]: > 100 µM
- TGI [23]: > 100 µM
- TGI [24]: > 100 µM
- TGI [25]: > 100 µM
- TGI [26]: > 100 µM
- TGI [27]: > 100 µM
- TGI [28]: > 100 µM
- TGI [29]: > 100 µM
- TGI [30]: > 100 µM
- TGI [31]: > 100 µM
- TGI [32]: > 100 µM
- TGI [33]: > 100 µM
- TGI [34]: > 100 µM
- TGI [35]: > 100 µM
- TGI [36]: > 100 µM
- TGI [37]: > 100 µM
- TGI [38]: > 100 µM
- TGI [39]: > 100 µM
- TGI [40]: > 100 µM
- TGI [41]: > 100 µM
- TGI [42]: > 100 µM
- TGI [43]: > 100 µM
- TGI [44]: > 100 µM
- TGI [45]: > 100 µM
- TGI [46]: > 100 µM
- TGI [47]: > 100 µM
- TGI [48]: > 100 µM
- TGI [49]: > 100 µM
- TGI [50]: > 100 µM
- TGI [51]: > 100 µM

Structure (SMILES): CC([C@H]1CCC2C3CCC4CC5(CC[C@]4(C)C3CC[C@@]21C)c1ccccc1C(=O)N5C)N(C)C (stereo not given in full)
- TGI [1]: 29.8 µM
- TGI [2]: > 100 µM
- TGI [3]: > 100 µM
- TGI [4]: > 100 µM
- TGI [52]: > 100 µM
- TGI [5]: > 100 µM
- TGI [6]: > 100 µM
- TGI [53]: > 100 µM
- TGI [7]: > 100 µM
- TGI [54]: 75.4 µM
- TGI [9]: > 100 µM
- TGI [10]: > 100 µM
- TGI [11]: > 100 µM
- TGI [12]: 46.3 µM
- TGI [55]: > 100 µM
- TGI [56]: > 100 µM
- TGI [13]: > 100 µM
- TGI [14]: 68.2 µM
- TGI [15]: > 100 µM
- TGI [16]: 92.2 µM
- TGI [17]: > 100 µM
- TGI [19]: 4.21 µM
- TGI [20]: > 100 µM
- TGI [21]: 38.7 µM
- TGI [22]: 78.3 µM
- TGI [23]: 42.5 µM
- TGI [24]: 91.7 µM
- TGI [25]: > 100 µM
- TGI [26]: > 100 µM
- TGI [27]: > 100 µM
- TGI [28]: > 100 µM
- TGI [57]: > 100 µM
- TGI [29]: > 100 µM
- TGI [30]: > 100 µM
- TGI [31]: > 100 µM
- TGI [58]: > 100 µM
- TGI [33]: > 100 µM
- TGI [34]: 48.5 µM
- TGI [35]: 71.8 µM
- TGI [36]: 42.9 µM
- TGI [37]: 35 µM
- TGI [38]: 42.9 µM
- TGI [39]: > 100 µM
- TGI [40]: > 100 µM
- TGI [41]: > 100 µM
- TGI [42]: 74.1 µM
- TGI [44]: 74.7 µM
- TGI [45]: > 100 µM
- TGI [46]: > 100 µM
- TGI [47]: > 100 µM
- TGI [49]: 73 µM
- TGI [50]: 50.2 µM

Structure (SMILES): CCC(O)(c1ccc(OC)cc1)C(c1ccc(OCc2ccccc2)cc1)c1ccc(OCc2ccccc2)cc1 (stereo not given)
- TGI [1]: > 100 µM
- TGI [2]: > 100 µM
- TGI [3]: > 100 µM
- TGI [4]: > 100 µM
- TGI [52]: > 100 µM
- TGI [5]: > 100 µM
- TGI [6]: > 100 µM
- TGI [53]: > 100 µM
- TGI [7]: > 100 µM
- TGI [54]: > 100 µM
- TGI [8]: > 100 µM
- TGI [9]: > 100 µM
- TGI [10]: > 100 µM
- TGI [11]: > 100 µM
- TGI [12]: > 100 µM
- TGI [56]: > 100 µM
- TGI [13]: > 100 µM
- TGI [14]: > 100 µM
- TGI [15]: > 100 µM
- TGI [16]: > 100 µM
- TGI [17]: > 100 µM
- TGI [18]: > 100 µM
- TGI [19]: > 100 µM
- TGI [20]: > 100 µM
- TGI [21]: > 100 µM
- TGI [22]: > 100 µM
- TGI [23]: > 100 µM
- TGI [24]: > 100 µM
- TGI [59]: > 100 µM
- TGI [25]: > 100 µM
- TGI [26]: > 100 µM
- TGI [27]: > 100 µM
- TGI [28]: > 100 µM
- TGI [57]: > 100 µM
- TGI [29]: > 100 µM
- TGI [30]: > 100 µM
- TGI [31]: > 100 µM
- TGI [58]: > 100 µM
- TGI [32]: > 100 µM
- TGI [33]: > 100 µM
- TGI [34]: > 100 µM
- TGI [35]: > 100 µM
- TGI [36]: > 100 µM
- TGI [37]: > 100 µM
- TGI [38]: > 100 µM
- TGI [39]: > 100 µM
- TGI [40]: > 100 µM
- TGI [41]: > 100 µM
- TGI [42]: > 100 µM
- TGI [43]: > 100 µM
- TGI [44]: > 100 µM
- TGI [45]: > 100 µM
- TGI [46]: > 100 µM
- TGI [47]: > 100 µM
- TGI [48]: > 100 µM
- TGI [49]: > 100 µM
- TGI [50]: > 100 µM
- TGI [51]: > 100 µM

Structure (SMILES): COc1cc2ccnc3c2c(c1OC)CC1CC(O)C(OC)CC31 (stereo not given)
- TGI [1]: > 100 µM
- TGI [3]: > 100 µM
- TGI [4]: > 100 µM
- TGI [5]: > 100 µM
- TGI [6]: > 100 µM
- TGI [53]: > 100 µM
- TGI [7]: > 100 µM
- TGI [54]: > 100 µM
- TGI [8]: 88.6 µM
- TGI [9]: > 100 µM
- TGI [10]: > 100 µM
- TGI [11]: > 100 µM
- TGI [12]: > 100 µM
- TGI [55]: > 100 µM
- TGI [56]: > 100 µM
- TGI [13]: 81.2 µM
- TGI [14]: > 100 µM
- TGI [15]: > 100 µM
- TGI [16]: > 100 µM
- TGI [17]: > 100 µM
- TGI [18]: > 100 µM
- TGI [19]: > 100 µM
- TGI [20]: > 100 µM
- TGI [21]: > 100 µM
- TGI [22]: > 100 µM
- TGI [23]: > 100 µM
- TGI [24]: > 100 µM
- TGI [59]: > 100 µM
- TGI [25]: > 100 µM
- TGI [26]: > 100 µM
- TGI [27]: > 100 µM
- TGI [28]: > 100 µM
- TGI [57]: > 100 µM
- TGI [29]: > 100 µM
- TGI [30]: > 100 µM
- TGI [31]: > 100 µM
- TGI [34]: > 100 µM
- TGI [35]: 55.4 µM
- TGI [36]: > 100 µM
- TGI [37]: 75.2 µM
- TGI [38]: > 100 µM
- TGI [39]: > 100 µM
- TGI [40]: > 100 µM
- TGI [41]: > 100 µM
- TGI [42]: > 100 µM
- TGI [43]: > 100 µM
- TGI [44]: > 100 µM
- TGI [45]: > 100 µM
- TGI [46]: > 100 µM
- TGI [47]: > 100 µM
- TGI [48]: > 100 µM
- TGI [49]: > 100 µM
- TGI [50]: > 100 µM
- TGI [51]: > 100 µM
